The record followed here is publication PMC11031590, “Narazaciclib, a novel multi-kinase inhibitor with potent activity against CSF1R, FLT3 and CDK6, shows strong anti-AML activity in defined preclinical models” (Scientific Reports, 2024).

In one assay the test system is M2 primary macrophages. Nature of the assay: Primary macrophage proliferation assay. The format is cell-based. The following applies: Homo sapiens. The protocol: Human primary monocytes were isolated with an EasySep™ monocyte isolation kit (Stem Cell) from cryopreserved human PBMCs. […] Narazaciclib was serially diluted with culture medium to 9 final concentrations from 0.004 µM to 24 µM. The differentiated macrophages were incubated for 7 days at 37 °C followed by incubation with Cell Counting-Lite2.0 reagent (Vazyme) for 5 min on a shaker. Luminescence was recorded […]. The proliferation inhibition IC50 (half maximal inhibition concentration) of narazaciclib was determined by fitting the dose–response data to a four-parameter stimulation model.

Another assay has as its target FLT3 (Homo sapiens, UniProt P36888). As to the kind of experiment: FLT3 kinase inhibition assay (ADP-Glo). To be noted: ATP 10 μM; read-out: IC50 FLT3 enzymatic activity. The format is biochemical. The protocol:
Different assays were used to measure the inhibitory potencies of narazaciclib on FLT3, CSF1R and CDK6. For FLT3 inhibition, the enzyme, substrate (final concentration at 15 μg/μL), ATP (final concentration at 10 μM) and inhibitors were diluted and mixed in kinase buffer (40 mM Tris, pH 7.5; 20 mM MgCl2; 0.1 mg/ml BSA; 50 μM DTT). The mixtures were incubated at 25 °C for 120 min. Then, ADP‐Glo™ Reagent (Promega) was added to the mix and incubated at 25 °C for 40 min followed by the addition of kinase detection reagent and another 30 min at 25 °C. Luminescence was recorded with an integration time of 0.5 s.
Background: ADP-Glo turns the ADP formed in a reaction into a luminescent signal.

The next assay has as its system Ba/F3-EGFR-L718Q. Nature of the assay: Ba/F3-EGFR-L718Q proliferation assay (CTG). To be noted: Mus musculus. Type of assay: cell-based. The protocol:
(§1) The recombinant Ba/F3 cell lines overexpressing human CSF1R, or human RBM6-CSF1R, or human ETV6-CSF1R were generated using a retrovirus vector (Kyinno Co., Ltd. Beijing). The recombinant Ba/F3 lines overexpressing human Kras G12C orEGFR-L718Q mutants, and different mutant variants of FLT3 were also similarly created as well. A standard proliferation assay via CTG readout was performed according to the vendor’s instructions (KYinno Biotechnology Co., Ltd. Beijing).

Another assay relates to HL-60. As to the kind of experiment: AML cell line in vitro proliferation assay. The format is cell-based. The protocol: (§2) Narazaciclib was serially diluted with culture medium to 9 final assay concentrations from 0.01 to 100 μM. The assay was performed with both a negative control (vehicle) and a positive control (Cisplatin) in triplicate. The AML cell lines at log-growth phase were cultured in 96-well plates (black transparent flat bottom 96-well plate, Corning, Cat# 3603, FBS, ExCell Bio., Cat# FND500) in the presence of narazaciclib or Cisplatin at various concentrations for 72 h or 120 h (only for AML-193 cell line), followed by CTG readout according to the manufacturer’s instruction (CellTiter-Glo Luminescent Cell Viability Assay, Promega, Cat# G7573). Viability%=Lumdrug-Lummedium control/Lumcell control-Lummedium control×100%. Lumcell control-Lummedium controlas100%,LumMediumcontrolas0%. Proliferationfold increase=D5-LumNone treated-LumMedium control/D2LumNone treated-LumMedium control
(§3) Dose–response curves were fitted by a 4-parameter log-logistic model: Inhibition%=Bottom+Top-Bottom/1+10^logEC50-x∗HillSlope where Top and Bottom are the two asymptotes of the sigmoidal curve, EC50 is the relative IC50, concentration x is in log-10 scale and HillSlope is the slope at the EC50 point on the fitted curve. The fitted area under the curve (AUC) was calculated by: Inhibition%=Bottom+Top-Bottom/1+10^logEC50-x∗HillSlope where a represents the log10-transformed minimal concentration and b represents the log10-transformed maximal concentration. An extremely strong positive correlation between the absolute IC50 and AUC is shown in Supplemental Fig. S5.

The subject of another assay is MV-4–11. Nature of the assay: AML cell line in vitro proliferation assay. Type of assay: cell-based. The protocol:
as §2, §3

The subject of another assay is Ba/F3-FLT3-ITD (N701K). As to the kind of experiment: Ba/F3-FLT3-ITD (N701K) proliferation assay. The format is cell-based, mouse. The protocol: as §1
The test system of a further assay is parental Ba/F3 line. As to the kind of experiment: Parental Ba/F3 proliferation assay (CTG). The format is cell-based. The following applies: Mus musculus, BaF3. The protocol: as §1
Another assay has as its system Ba/F3-FLT3-F691L. Nature of the assay: Ba/F3-FLT3-F691L proliferation assay. Type of assay: cell-based, mouse. The method, then: as §1
Another assay has as its system Ba/F3-FLT3-ITD (D835V). As to the kind of experiment: Ba/F3-FLT3-ITD (D835V) proliferation assay. Type of assay: cell-based, mouse. The method, then:
as §1

A further assay concerns Ba/F3-FLT3-ITD. As to the kind of experiment: Ba/F3-FLT3-ITD proliferation assay. Type of assay: cell-based, mouse. The protocol:
as §1

Values joined by “and” are separate entries in the source; they are usually repeats but may differ in a detail not shown here. Equal entries are not always repeated. Where two headings read alike, the source gives them in different places.

Chain of FLT3 (P36888 27-993): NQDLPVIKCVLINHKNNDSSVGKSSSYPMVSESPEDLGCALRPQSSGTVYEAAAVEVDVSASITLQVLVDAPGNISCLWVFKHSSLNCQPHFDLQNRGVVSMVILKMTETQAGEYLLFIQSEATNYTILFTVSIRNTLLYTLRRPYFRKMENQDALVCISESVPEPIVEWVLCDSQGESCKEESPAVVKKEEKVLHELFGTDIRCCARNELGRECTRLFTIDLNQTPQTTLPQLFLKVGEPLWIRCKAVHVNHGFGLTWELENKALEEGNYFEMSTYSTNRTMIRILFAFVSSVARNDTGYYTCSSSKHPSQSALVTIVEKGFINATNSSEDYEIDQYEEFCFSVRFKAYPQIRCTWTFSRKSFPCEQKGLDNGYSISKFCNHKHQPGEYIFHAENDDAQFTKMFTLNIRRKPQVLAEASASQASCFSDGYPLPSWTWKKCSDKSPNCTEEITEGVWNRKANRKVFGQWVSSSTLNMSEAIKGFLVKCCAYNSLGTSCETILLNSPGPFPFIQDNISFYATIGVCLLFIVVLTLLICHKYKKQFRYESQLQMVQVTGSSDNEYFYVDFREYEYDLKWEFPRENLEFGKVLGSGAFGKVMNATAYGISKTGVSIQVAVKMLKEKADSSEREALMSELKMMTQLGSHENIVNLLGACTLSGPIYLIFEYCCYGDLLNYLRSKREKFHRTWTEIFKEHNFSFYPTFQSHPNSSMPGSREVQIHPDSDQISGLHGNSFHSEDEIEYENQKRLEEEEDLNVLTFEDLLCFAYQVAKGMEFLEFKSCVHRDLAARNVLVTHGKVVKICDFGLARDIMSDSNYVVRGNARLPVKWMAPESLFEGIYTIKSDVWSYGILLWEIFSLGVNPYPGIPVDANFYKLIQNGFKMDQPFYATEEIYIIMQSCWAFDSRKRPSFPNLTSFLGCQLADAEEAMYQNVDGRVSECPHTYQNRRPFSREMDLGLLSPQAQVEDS

On to `CN1CCN(c2ccc(Nc3ncc4cc(C#N)c(=O)n(C5CCCC5)c4n3)cc2)CC1` [Narazaciclib, narazaciclib], for which the IC50 in the assay with M2 primary macrophages (M2-macrophages, read-out: IC50 M2-macrophage proliferation) is 72.5 nM; in the assay with M2 primary macrophages (M-CSF : GM-CSF Ratio 0:100, read-out: IC50 M2-Macrophages Growth Inhibition) it was 3650 nM; with M2 primary macrophages (M-CSF : GM-CSF Ratio 25:75, read-out: IC50 M2-Macrophages Growth Inhibition), 3520 nM; with M2 primary macrophages (M-CSF : GM-CSF Ratio 50:50, read-out: IC50 M2-Macrophages Growth Inhibition) it was 3970 nM; in the assay with M2 primary macrophages (M-CSF : GM-CSF Ratio 75:25, read-out: IC50 M2-Macrophages Growth Inhibition), 3700 nM; at FLT3, ~19.8 nM and 19.8 nM. The IC50 with Ba/F3-EGFR-L718Q was 633 nM; in the assay on HL-60 (Homo sapiens, HL-60, 72 h, CTG), 6140 nM; with MV-4–11 (Homo sapiens, MV4-11, MV-4–11, 72 h, CTG), 264 nM; in the assay with Ba/F3-FLT3-ITD (N701K) (Mus musculus), 117 nM; with parental Ba/F3 line, 1350 nM; in the assay with Ba/F3-FLT3-F691L (Mus musculus) it was 133 nM. Further, the IC50 stood at 29.6 nM with Ba/F3-FLT3-ITD (D835V) (Mus musculus) and 95.3 nM with Ba/F3-FLT3-ITD (Mus musculus). The “Classification by AUC” value with HL-60 (HL-60) was “Insensitive (AUC ≥ 2.8, insensitive)”; in the assay with MV-4–11 (MV-4–11), “Sensitive (AUC ≤ 2.4, sensitive)”. The AUC with HL-60 (HL-60, area under the dose–response curve) is 2.836; with MV-4–11 (MV-4–11, area under the dose–response curve) it was 1.454. Further, the “% of Ba/F3-FLT3 (IC50)” value in the assay on Ba/F3-FLT3-ITD (N701K) came to 38.91%; with Ba/F3-FLT3-F691L, 44.19%; with Ba/F3-FLT3-ITD (D835V), 9.84%; with Ba/F3-FLT3-ITD, 31.66%.
